Results: US11993599B2, “Therapeutic compounds” (Genentech, Inc., priority 2021, dated 2024)

Legend:
BRG1 = target: T1, BRG1 (Homo sapiens, UniProt P51532); test: Immunofluorescence assay for BRG1 degradation in SW1573 cells; assay type: cell-based; conditions: 20 hours incubation; for DC50: immunofluorescence mean nuclear signal, read-out: BRG1 IF Degradation IC50; for Dmax: SW1573, 20 h, normalized to a known degrader control, read-out: BRG1 IF Degradation Sinf (%)
T1 construct: either BRM primary antibody (Cell signaling Cat #11966) or BRG primary antibody (Abcam, ab 110641); endogenous in cells; host or cells: SW1573
T1 sequence (P51532 whole entry): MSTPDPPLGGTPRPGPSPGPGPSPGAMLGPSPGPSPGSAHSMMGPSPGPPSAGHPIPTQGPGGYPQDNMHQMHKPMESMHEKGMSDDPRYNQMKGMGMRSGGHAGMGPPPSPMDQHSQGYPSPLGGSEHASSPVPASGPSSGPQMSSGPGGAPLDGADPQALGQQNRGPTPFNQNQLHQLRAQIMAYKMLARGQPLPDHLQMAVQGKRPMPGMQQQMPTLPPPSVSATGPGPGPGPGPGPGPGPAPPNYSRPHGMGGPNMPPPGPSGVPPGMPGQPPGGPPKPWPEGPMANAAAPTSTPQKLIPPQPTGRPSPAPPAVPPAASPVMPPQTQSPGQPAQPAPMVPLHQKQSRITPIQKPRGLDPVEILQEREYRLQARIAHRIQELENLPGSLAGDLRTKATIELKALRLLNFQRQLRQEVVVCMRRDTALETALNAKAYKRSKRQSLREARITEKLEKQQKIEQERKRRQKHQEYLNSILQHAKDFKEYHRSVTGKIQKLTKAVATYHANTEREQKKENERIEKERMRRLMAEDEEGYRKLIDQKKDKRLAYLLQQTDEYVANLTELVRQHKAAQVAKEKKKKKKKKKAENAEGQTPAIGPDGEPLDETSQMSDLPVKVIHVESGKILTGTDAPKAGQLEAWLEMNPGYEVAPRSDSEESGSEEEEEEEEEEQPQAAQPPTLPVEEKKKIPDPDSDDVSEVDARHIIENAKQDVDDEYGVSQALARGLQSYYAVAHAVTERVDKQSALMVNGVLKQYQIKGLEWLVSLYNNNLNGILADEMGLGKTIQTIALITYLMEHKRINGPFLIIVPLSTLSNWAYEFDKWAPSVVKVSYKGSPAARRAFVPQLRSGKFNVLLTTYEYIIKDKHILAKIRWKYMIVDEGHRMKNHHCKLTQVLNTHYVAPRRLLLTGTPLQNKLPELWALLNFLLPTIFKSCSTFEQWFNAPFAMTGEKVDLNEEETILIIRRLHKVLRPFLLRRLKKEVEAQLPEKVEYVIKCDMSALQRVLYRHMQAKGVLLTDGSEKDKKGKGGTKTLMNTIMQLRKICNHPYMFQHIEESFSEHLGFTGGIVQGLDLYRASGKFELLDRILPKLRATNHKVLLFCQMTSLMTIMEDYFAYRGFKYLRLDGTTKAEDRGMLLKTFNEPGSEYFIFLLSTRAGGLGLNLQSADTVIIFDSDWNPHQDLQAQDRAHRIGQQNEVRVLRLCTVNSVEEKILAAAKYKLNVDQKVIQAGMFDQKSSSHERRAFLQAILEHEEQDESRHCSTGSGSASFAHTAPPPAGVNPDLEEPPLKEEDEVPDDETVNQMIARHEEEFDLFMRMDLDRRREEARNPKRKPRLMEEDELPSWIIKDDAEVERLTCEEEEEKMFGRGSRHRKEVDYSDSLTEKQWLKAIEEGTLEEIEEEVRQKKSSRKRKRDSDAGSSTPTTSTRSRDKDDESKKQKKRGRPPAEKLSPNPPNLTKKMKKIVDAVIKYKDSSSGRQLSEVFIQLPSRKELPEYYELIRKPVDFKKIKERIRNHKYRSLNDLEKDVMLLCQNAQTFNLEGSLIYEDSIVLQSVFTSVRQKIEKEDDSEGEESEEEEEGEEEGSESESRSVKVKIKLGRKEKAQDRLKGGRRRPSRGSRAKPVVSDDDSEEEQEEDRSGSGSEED
Procedure, shortened: (§1)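 After a 20 h incubation with test compound, SW1573 cells are fixed and stained for BRM or BRG1 plus Hoechst. Per-cell mean nuclear intensity, referenced to a degrader control, is fit concentration-dependently with unconstrained maximum for Dmax.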

BRM = BRM (Homo sapiens, UniProt P51531); test: Immunofluorescence assay for BRM degradation in SW1573 cells; assay type: cell-based; parameters: treated overnight at 4° C. with either BRM primary antibody (Cell signaling Cat #11966) or BRG primary antibody; endogenous in cells; host or cells: SW1573; conditions: 20 hours incubation; for DC50: immunofluorescence mean nuclear signal, read-out: BRM IF Degradation IC50; for BRM IF Degradation Sinf (%): normalized to a known degrader control
Chain of BRM (P51531 whole entry): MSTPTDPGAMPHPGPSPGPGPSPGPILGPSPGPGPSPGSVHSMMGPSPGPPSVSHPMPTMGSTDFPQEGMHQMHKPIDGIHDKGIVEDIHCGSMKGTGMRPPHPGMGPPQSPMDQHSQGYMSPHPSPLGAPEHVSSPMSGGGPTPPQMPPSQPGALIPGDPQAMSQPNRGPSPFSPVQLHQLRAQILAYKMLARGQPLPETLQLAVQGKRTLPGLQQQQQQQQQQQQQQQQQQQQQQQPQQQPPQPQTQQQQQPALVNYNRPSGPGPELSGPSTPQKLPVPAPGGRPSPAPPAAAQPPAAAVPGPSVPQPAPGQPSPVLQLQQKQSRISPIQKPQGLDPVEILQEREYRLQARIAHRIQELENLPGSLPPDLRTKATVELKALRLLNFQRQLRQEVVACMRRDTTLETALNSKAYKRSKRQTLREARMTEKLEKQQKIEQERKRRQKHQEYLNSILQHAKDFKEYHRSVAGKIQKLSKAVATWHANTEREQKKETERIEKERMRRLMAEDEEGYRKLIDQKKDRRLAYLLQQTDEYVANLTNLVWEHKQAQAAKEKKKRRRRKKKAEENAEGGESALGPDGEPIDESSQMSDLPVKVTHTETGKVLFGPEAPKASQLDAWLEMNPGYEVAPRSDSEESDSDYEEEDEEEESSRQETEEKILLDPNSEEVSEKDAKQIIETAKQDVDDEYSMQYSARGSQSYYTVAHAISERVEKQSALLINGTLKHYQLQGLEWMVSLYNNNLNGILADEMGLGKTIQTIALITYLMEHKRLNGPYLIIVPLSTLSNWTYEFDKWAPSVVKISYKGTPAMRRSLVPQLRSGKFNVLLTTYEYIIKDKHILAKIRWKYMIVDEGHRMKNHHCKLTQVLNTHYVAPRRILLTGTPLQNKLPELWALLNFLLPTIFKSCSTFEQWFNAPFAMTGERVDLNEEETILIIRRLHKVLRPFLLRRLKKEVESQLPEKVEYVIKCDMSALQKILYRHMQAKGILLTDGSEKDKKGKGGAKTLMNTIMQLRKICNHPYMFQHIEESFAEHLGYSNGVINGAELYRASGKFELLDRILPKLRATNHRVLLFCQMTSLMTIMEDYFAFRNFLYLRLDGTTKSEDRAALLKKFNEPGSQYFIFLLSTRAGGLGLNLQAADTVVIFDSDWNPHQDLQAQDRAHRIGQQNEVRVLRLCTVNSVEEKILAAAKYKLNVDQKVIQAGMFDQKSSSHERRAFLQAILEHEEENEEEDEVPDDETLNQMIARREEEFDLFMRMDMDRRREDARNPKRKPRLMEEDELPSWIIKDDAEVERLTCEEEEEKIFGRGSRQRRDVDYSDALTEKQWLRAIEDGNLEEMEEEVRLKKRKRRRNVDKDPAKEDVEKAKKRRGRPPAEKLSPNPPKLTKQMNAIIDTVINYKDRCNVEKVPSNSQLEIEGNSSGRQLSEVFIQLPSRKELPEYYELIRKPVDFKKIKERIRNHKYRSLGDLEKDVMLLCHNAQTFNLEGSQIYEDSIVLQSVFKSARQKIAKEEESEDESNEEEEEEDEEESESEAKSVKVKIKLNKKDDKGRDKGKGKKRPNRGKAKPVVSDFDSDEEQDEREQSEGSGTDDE
Procedure, shortened: as §1

SMILES	DC50 (BRG1)	Dmax (BRG1)	DC50 (BRM)	BRM IF Degradation Sinf (%) (BRM)
Nc1nnc(-c2ccccc2O)cc1N1CC2CCC(C1)N2c1ccnc(C#CCN2C[C@H]3OCC[C@H]32)c1 [Compound 161, 2-[6-amino-5-[8-[2-[3-[(1R,5R)-2-oxa-6-azabicyclo[3.2.0]heptan-6-yl]prop-1-ynyl]-4-pyridyl]-3,8-diazabicyclo[3.2.1]octan-3-yl]pyridazin-3-yl]phenol]	10 to 100 nM	30 to 70%	< 10 nM	E (E indicates −30%-−70%)
N#Cc1ccc(C2CN(CC#Cc3cc(N4C5CCC4CN(c4cc(-c6ccccc6O)nnc4N)C5)ccn3)C2)cc1 [Compound 237, 4-[1-[3-[4-[3-[3-amino-6-(2-hydroxyphenyl)pyridazin-4-yl]-3,8-diazabicyclo[3.2.1]octan-8-yl]-2-pyridyl]prop-2-ynyl]azetidin-3-yl]benzonitrile]	10 to 100 nM	30 to 70%	10 to 100 nM	E (E indicates −30%-−70%)
Nc1nnc(-c2ccccc2O)cc1N1CC2CCC(C1)N2c1ccnc(C#CCN2CC3(CC3)C2)c1 [Compound 233, 2-[6-amino-5-[8-[2-[3-(5-azaspiro[2.3]hexan-5-yl)prop-1-ynyl]-4-pyridyl]-3,8-diazabicyclo[3.2.1]octan-3-yl]pyridazin-3-yl]phenol]	< 10 nM	30 to 70%	< 10 nM	E (E indicates −30%-−70%)
Nc1nnc(-c2ccccc2O)cc1N1CC2CCC(C1)N2c1ccnc(C#CCN2CC3CCCCC3C2)c1 (stereo not shown) [Compound 39, 2-[5-[8-[2-[3-(1,3,3a,4,5,6,7,7a-octahydroisoindol-2-yl)prop-1-ynyl]-4-pyridyl]-3,8-diazabicyclo[3.2.1]octan-3-yl]-6-amino-pyridazin-3-yl]phenol]	< 10 nM	30 to 70%	< 10 nM	F (F indicates −71%-−120%)
CC1(CO)CCCN(CC#Cc2cc(N3C4CCC3CN(c3cc(-c5ccccc5O)nnc3N)C4)ccn2)CC1 (stereo not shown) [Compound 197, 2-[6-amino-5-[8-[2-[3-[4-(hydroxymethyl)-4-methyl-azepan-1-yl]prop-1-ynyl]-4-pyridyl]-3,8-diazabicyclo[3.2.1]octan-3-yl]pyridazin-3-yl]phenol]	< 10 nM	30 to 70%	< 10 nM	F (F indicates −71%-−120%)
Nc1nnc(-c2ccccc2O)cc1N1CC2CCC(C1)N2c1ccnc(C#CCN2CCCC(F)CC2)c1 (stereo not shown) [Compound 193, 2-[6-amino-5-[8-[2-[3-(4-fluoroazepan-1-yl)prop-1-ynyl]-4-pyridyl]-3,8-diazabicyclo[3.2.1]octan-3-yl]pyridazin-3-yl]phenol]	< 10 nM	71 to 120%	< 10 nM	F (F indicates −71%-−120%)
CC1(C)CN(CC#Cc2cc(N3C4CCC3CN(c3cc(-c5ccccc5O)nnc3N)C4)ccn2)CCO1 [Compound 119, 2-[6-amino-5-[8-[2-[3-(2,2-dimethylmorpholin-4-yl)prop-1-ynyl]-4-pyridyl]-3,8-diazabicyclo[3.2.1]octan-3-yl]pyridazin-3-yl]phenol]	> 100 nM		> 100 nM	E (E indicates −30%-−70%)
CN1CCCN(CC#Cc2cc(N3C4CCC3CN(c3cc(-c5ccccc5O)nnc3N)C4)ccn2)CC1 [Compound 47, 2-[6-amino-5-[8-[2-[3-(4-methyl-1,4-diazepan-1-yl)prop-1-ynyl]-4-pyridyl]-3,8-diazabicyclo[3.2.1]octan-3-yl]pyridazin-3-yl]phenol]	> 100 nM	0 to 30%	> 100 nM	E (E indicates −30%-−70%)
CC[C@@H]1COCCN1CC#Cc1cc(N2C3CCC2CN(c2cc(-c4ccccc4O)nnc2N)C3)ccn1 [Compound 48, 2-[6-amino-5-[8-[2-[3-[(3R)-3-ethylmorpholin-4-yl]prop-1-ynyl]-4-pyridyl]-3,8-diazabicyclo[3.2.1]octan-3-yl]pyridazin-3-yl]phenol]	10 to 100 nM	0 to 30%	10 to 100 nM	E (E indicates −30%-−70%)
Nc1nnc(-c2ccccc2O)cc1N1CCC2(CCN(c3ccnc(C#CCN4CCCCCC4)c3)CC2)CC1 [Compound 249, 2-(6-amino-5-(9-(2-(3-(azepan-1-yl)prop-1-yn-1-yl)pyridin-4-yl)-3,9-diazaspiro[5.5]undecan-3-yl)pyridazin-3-yl)phenol]	> 100 nM		< 10 nM	E (E indicates −30%-−70%)
Nc1nnc(-c2ccccc2O)cc1N1CC2CCC(C1)N2c1ccnc(C#CCN2CC3CC(C2)C3O)c1 (stereo not shown) [Compound 126, 3-[3-[4-[3-[3-amino-6-(2-hydroxyphenyl)pyridazin-4-yl]-3,8-diazabicyclo[3.2.1]octan-8-yl]-2-pyridyl]prop-2-ynyl]-3-azabicyclo[3.1.1]heptan-6-ol]	< 10 nM	0 to 30%	< 10 nM	E (E indicates −30%-−70%)
CNC(=O)C12CC(CN1CC#Cc1cc(N3C4CCC3CN(c3cc(-c5ccccc5O)nnc3N)C4)ccn1)C2 [Compound 148, 2-[3-[4-[3-[3-amino-6-(2-hydroxyphenyl)pyridazin-4-yl]-3,8-diazabicyclo[3.2.1]octan-8-yl]-2-pyridyl]prop-2-ynyl]-N-methyl-2-azabicyclo[2.1.1]hexane-1-carboxamide]	> 100 nM	30 to 70%	10 to 100 nM	E (E indicates −30%-−70%)
Nc1nnc(-c2ccccc2O)cc1N1CC2CCC(C1)N2c1ccnc(C#CCN2CCCC(CO)C2)c1 (stereo not shown) [Compound 134, 2-[6-amino-5-[8-[2-[3-[3-(hydroxymethyl)-1-piperidyl]prop-1-ynyl]-4-pyridyl]-3,8-diazabicyclo[3.2.1]octan-3-yl]pyridazin-3-yl]phenol]	10 to 100 nM	30 to 70%	10 to 100 nM	E (E indicates −30%-−70%)
CNC(=O)C1COCCN1CC#Cc1cc(N2C3CCC2CN(c2cc(-c4ccccc4O)nnc2N)C3)ccn1 (stereo not shown) [Compound 89, 4-[3-[4-[3-[3-amino-6-(2-hydroxyphenyl)pyridazin-4-yl]-3,8-diazabicyclo[3.2.1]octan-8-yl]-2-pyridyl]prop-2-ynyl]-N-methyl-morpholine-3-carboxamide]	> 100 nM		10 to 100 nM	E (E indicates −30%-−70%)
Nc1nnc(-c2ccccc2O)cc1N1CC2CCC(C1)N2c1ccnc(C#CCN2CCC23CCOCC3)c1 [Compound 159, 2-[6-amino-5-[8-[2-[3-(7-oxa-1-azaspiro[3.5]nonan-1-yl)prop-1-ynyl]-4-pyridyl]-3,8-diazabicyclo[3.2.1]octan-3-yl]pyridazin-3-yl]phenol]	< 10 nM	30 to 70%	< 10 nM	E (E indicates −30%-−70%)
COC1CN(CC#Cc2cc(N3C4CCC3CN(c3cc(-c5ccccc5O)nnc3N)C4)ccn2)C1 [Compound 174, 2-[6-amino-5-[8-[2-[3-(3-methoxyazetidin-1-yl)prop-1-ynyl]-4-pyridyl]-3,8-diazabicyclo[3.2.1]octan-3-yl]pyridazin-3-yl]phenol]	10 to 100 nM	30 to 70%	10 to 100 nM	F (F indicates −71%-−120%)
